From patent US8343961B2, “Substituted heterocyclic compounds” (ArQule, Inc., priority 2009, dated 2013)

How the values were obtained:
Tec kinase = molecular target: T1, Tec kinase (Homo sapiens, UniProt P42680); assay: Tec Kinase Activity Assay; type: biochemical; details: read-out: Tec % INH, at 30 uM
T1 sequence (P42680 1-631): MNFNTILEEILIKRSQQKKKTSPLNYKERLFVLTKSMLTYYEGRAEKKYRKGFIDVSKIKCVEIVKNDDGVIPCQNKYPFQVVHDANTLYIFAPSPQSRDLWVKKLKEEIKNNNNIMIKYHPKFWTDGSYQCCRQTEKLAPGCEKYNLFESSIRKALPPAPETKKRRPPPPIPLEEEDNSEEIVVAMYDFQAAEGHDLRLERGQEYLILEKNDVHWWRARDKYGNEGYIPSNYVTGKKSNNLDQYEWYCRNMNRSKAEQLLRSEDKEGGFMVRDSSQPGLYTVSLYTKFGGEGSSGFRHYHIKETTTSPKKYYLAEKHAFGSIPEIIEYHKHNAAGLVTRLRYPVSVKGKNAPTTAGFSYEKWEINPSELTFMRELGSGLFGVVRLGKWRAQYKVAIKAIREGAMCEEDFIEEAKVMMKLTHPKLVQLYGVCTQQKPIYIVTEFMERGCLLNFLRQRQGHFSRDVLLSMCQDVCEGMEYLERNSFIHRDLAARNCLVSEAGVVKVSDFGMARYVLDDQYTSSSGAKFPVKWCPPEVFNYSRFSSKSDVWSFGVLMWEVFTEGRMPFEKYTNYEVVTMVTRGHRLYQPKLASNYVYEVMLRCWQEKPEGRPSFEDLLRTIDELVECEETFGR
In short: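 Biochemical Tec kinase reaction in Tris-HCl/MgCl2/EGTA/DTT buffer with 75 μM ATP, compound pre-incubated with enzyme for 30 min, then biotinylated Pyk-2 substrate added for 2 h at room temperature. Phosphorylated product captured on streptavidin and detected by anti-phosphotyrosine ELISA with alkaline phosphatase/Attophos fluorescence.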

RET kinase = RET kinase (Homo sapiens, UniProt P07949); assay: RET Kinase Activity Assay; type: biochemical; details: read-out: Ret, % INH, at 30 uM
RET kinase, sequence (P07949 29-1114): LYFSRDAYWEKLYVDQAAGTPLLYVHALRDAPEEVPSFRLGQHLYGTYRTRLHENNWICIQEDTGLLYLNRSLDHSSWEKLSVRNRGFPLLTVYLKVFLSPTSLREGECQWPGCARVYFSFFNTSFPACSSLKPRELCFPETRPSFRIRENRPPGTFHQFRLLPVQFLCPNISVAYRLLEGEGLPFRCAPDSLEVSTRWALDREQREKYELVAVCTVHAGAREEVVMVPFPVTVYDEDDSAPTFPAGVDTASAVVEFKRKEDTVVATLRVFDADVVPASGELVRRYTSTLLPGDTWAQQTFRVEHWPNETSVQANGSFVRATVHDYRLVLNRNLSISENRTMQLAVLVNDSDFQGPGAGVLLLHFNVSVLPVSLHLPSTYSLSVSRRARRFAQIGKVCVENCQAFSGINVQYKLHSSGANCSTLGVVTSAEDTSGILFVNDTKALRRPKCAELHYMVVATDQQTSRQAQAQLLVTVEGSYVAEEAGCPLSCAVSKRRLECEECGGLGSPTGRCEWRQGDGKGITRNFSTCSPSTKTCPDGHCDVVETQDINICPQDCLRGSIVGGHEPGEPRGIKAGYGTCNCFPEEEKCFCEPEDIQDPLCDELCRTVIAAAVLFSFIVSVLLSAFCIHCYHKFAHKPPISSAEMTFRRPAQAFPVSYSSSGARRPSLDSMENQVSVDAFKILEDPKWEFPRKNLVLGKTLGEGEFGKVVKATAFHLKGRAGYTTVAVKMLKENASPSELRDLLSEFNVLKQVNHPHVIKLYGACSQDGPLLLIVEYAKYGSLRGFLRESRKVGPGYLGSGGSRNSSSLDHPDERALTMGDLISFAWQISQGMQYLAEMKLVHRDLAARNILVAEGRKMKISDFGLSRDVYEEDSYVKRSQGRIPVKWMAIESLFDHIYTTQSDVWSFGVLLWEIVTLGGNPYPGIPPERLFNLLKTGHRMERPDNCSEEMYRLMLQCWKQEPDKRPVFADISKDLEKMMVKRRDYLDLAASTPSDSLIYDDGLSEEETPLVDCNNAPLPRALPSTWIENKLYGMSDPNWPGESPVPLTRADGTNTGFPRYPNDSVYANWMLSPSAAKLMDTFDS
In short: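 RET […] was preincubated with compound for 15 min, then phosphorylated biotinylated Pyk-2 substrate for 1 h at room temperature with 75 μM ATP and 10 mM MgCl2. Product was captured on streptavidin plates and detected with anti-phosphotyrosine, an AP-tagged secondary antibody and Attophos fluorescence.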

Row | inhibition at 30 µM (Tec kinase) [%] | inhibition at 30 µM (RET kinase) [%] | Structure (SMILES)
1 | > 79 | 50 to 79 | Nc1nc(N2CCN(Cc3ccc(Cl)c(Cl)c3)c3ccccc3C2)c2cn[nH]c2n1 [Compound 43, 4-[1-(3,4-dichlorobenzyl)-1,2,3,5-tetrahydro-4H-1,4-benzodiazepin-4-yl]-1H-pyrazolo[3,4-d]pyrimidin-6-amine]
2 | < 50 | 50 to 79 | Cc1ccc(CN2CCN(c3nc(N)nc4[nH]cnc34)Cc3ccccc32)cc1 [Compound 26, 6-[1-(4-methylbenzyl)-1,2,3,5-tetrahydro-4H-1,4-benzodiazepin-4-yl]-9H-purin-2-amine]
